Broadly, the IC50 is the concentration that gives 50% inhibition.

Like-named read-outs stand apart in the source and are kept apart here. Square brackets hold non-standard residues; d marks the D form. Peptide text beside a SMILES is read from it. * marks the point of attachment. NH((S)-1-NMe2-3-Me-but-2-yl) = CC(C)[C@@H](CN(C)C)N*; dVal(3-OH) = CC(C)(O)[C@@H](N)C(=O)O; d(aIle) = CC[C@H](C)[C@@H](N)C(=O)O; Val(3-OH) = CC(C)(O)[C@H](N)C(=O)O; ΔVal = CC(C)=C(N)C(=O)O Where only a bound is given, the exact number is not on record here.

Experimental findings from publication PMC8848768, “Synthesis and evaluation of potent yaku'amide A analogs” (Chemical Science, 2022) are described below.

What all share (experiment): cells
Assay [1] concerns JURKAT. Particulars: read-out: Aver IC50, JURKAT. As to the method: (§1) The antiproliferative activity profiles of 1a, its full-length analogs 2a and 2b, and its partial structures (23, 24, 26, and 30) were determined by in vitro screening in 72 hours MTS cell proliferation assays against a panel of 18 different human cancer cell lines. […] The three peptides were also evaluated for their antiproliferative activity against the lung fibroblast MRC5 cell line.
(§2) Cells (40 µ L) are added into individual wells of a 384-well black/clear bottom plate on day zero at concentrations enabling continuous log growth over the course of the assay. On day one, compounds (or DMSO) are transferred using an ATS-liquid handler (100 nL per well) to individual wells containing cells and the cells are treated for 72 hours (37 °C, 5% CO 2) prior to measuring proliferation using MTS reagent following manufacturer’s instructions. Net OD values are determined by subtracting the average OD values of cells (measured on day 1, T = 0) from average total OD value of cells (measured on day 4, T = 72h). IC 50 values are calculated using proprietary software (IC 50 values normalized against all compounds). Results represent n>2 independent studies (in duplicate).
(§3) Table S1. Antiproliferative Data of Compounds 1a, 2a, 2b, 23, 24, 26, and 30.
(§4) Table S2. Human Cell Line Descriptions.
(§5) Human Cell Line* Description
(§6) *All cells were obtained from ATCC and are authenticated

The test system of assay [2] is COLO678. Particulars: read-out: Aver IC50, COLO678. On the procedure:
as §1, §2, §3, §4, §5, §6

Assay [3] deals with lung fibroblast MRC5 cell line. Particulars: read-out: Aver IC50, MRC5. On the procedure:
as §1, §2, §3, §4, §5, §6

Assay [4] concerns BXPC3. Particulars: read-out: Aver IC50, BXPC3. As to the method:
as §1, §2, §3, §4, §5, §6

Assay [5] relates to NCIH1048. Particulars: read-out: Aver IC50, NCIH1048. As to the method:
as §1, §2, §3, §4, §5, §6

Assay [6] concerns HT29. The following applies: read-out: Aver IC50, HT29. On the procedure:
as §1, §2, §3, §4, §5, §6

The subject of assay [7] is U937. The following applies: read-out: Aver IC50, U937. On the procedure:
as §1, §2, §3, §4, §5, §6

In assay [8] the test system is OVCAR3. Particulars: read-out: Aver IC50, OVCAR3. As to the method: as §1, §2, §3, §4, §5, §6
Assay [9] has as its system A375. Particulars: read-out: Aver IC50, A375. On the procedure:
as §1, §2, §3, §4, §5, §6

The subject of assay [10] is PANC1005. Particulars: read-out: Aver IC50, PANC1005. As to the method: as §1, §2, §3, §4, §5, §6
The test system of assay [11] is MV411. Particulars: read-out: Aver IC50, MV411. On the procedure: as §1, §2, §3, §4, §5, §6
Assay [12] relates to HCT116. Particulars: read-out: Aver IC50, HCT116. As to the method:
as §1, §2, §3, §4, §5, §6

In assay [13] the test system is RAMOS. Particulars: read-out: Aver IC50, RAMOS. As to the method:
as §1, §2, §3, §4, §5, §6

Assay [14] deals with SNUC1. Particulars: read-out: Aver IC50, SNUC1. As to the method:
as §1, §2, §3, §4, §5, §6

Assay [15] relates to CALU6. The following applies: read-out: Aver IC50, CALU6. On the procedure:
as §1, §2, §3, §4, §5, §6

The test system of assay [16] is A549. The following applies: read-out: Aver IC50, A549. On the procedure: as §1, §2, §3, §4, §5, §6
Assay [17] relates to THP1. The following applies: read-out: Aver IC50, THP1. On the procedure: as §1, §2, §3, §4, §5, §6
Assay [18] concerns HL60. Particulars: read-out: Aver IC50, HL60. On the procedure:
as §1, §2, §3, §4, §5, §6

[19] abbreviates: JURKAT (acute T-cell leukemia), MTS, 72 hours, 37 °C, 5% CO2, 384-well, n>2 independent studies (in duplicate).
Setting [20] is: COLO678 (Colon Carcinoma), MTS, 72 hours, 37 °C, 5% CO2, 384-well, n>2 independent studies (in duplicate).
The mark [21] stands for this setting: MRC5 (Lung Fibroblast, noncancerous), MTS, 72 hours, 37 °C, 5% CO2, 384-well, n>2 independent studies (in duplicate).
The mark [22] stands for this setting: BXPC3 (Pancreatic - Adenocarcinoma), MTS, 72 hours, 37 °C, 5% CO2, 384-well, n>2 independent studies (in duplicate).
Setting [23] is: NCIH1048 (Lung - SCLC), MTS, 72 hours, 37 °C, 5% CO2, 384-well, n>2 independent studies (in duplicate).
Where [24] appears, read: HT29 (Colon Carcinoma), MTS, 72 hours, 37 °C, 5% CO2, 384-well, n>2 independent studies (in duplicate).
[25] abbreviates: U937 (Pro-monocytic, Human Myeloid Leukemia), MTS, 72 hours, 37 °C, 5% CO2, 384-well, n>2 independent studies (in duplicate).
[26] abbreviates: OVCAR3 (Ovary - Adenocarcinoma), MTS, 72 hours, 37 °C, 5% CO2, 384-well, n>2 independent studies (in duplicate).
[27] abbreviates: A375 (Malignant Melanoma), MTS, 72 hours, 37 °C, 5% CO2, 384-well, n>2 independent studies (in duplicate).
[28] abbreviates: PANC1005 (Pancreatic - Adenocarcinoma), MTS, 72 hours, 37 °C, 5% CO2, 384-well, n>2 independent studies (in duplicate).
The mark [29] stands for this setting: MV411 (Acute Myeloid Leukemia), MTS, 72 hours, 37 °C, 5% CO2, 384-well, n>2 independent studies (in duplicate).
[30] abbreviates: HCT116 (Colon Carcinoma), MTS, 72 hours, 37 °C, 5% CO2, 384-well, n>2 independent studies (in duplicate).
[31] abbreviates: RAMOS (Burkitt's lymphoma), MTS, 72 hours, 37 °C, 5% CO2, 384-well, n>2 independent studies (in duplicate).
Setting [32] is: SNUC1 (Colon Carcinoma), MTS, 72 hours, 37 °C, 5% CO2, 384-well, n>2 independent studies (in duplicate).
Where [33] appears, read: CALU6 (Lung - Adenocarcinoma), MTS, 72 hours, 37 °C, 5% CO2, 384-well, n>2 independent studies (in duplicate).
Where [34] appears, read: A549 (Lung - NSCLC), MTS, 72 hours, 37 °C, 5% CO2, 384-well, n>2 independent studies (in duplicate).
The mark [35] stands for this setting: THP1 (Acute Monocytic Leukemia), MTS, 72 hours, 37 °C, 5% CO2, 384-well, n>2 independent studies (in duplicate).
[36] abbreviates: HL60 (Leukema - Promyelocytic), MTS, 72 hours, 37 °C, 5% CO2, 384-well, n>2 independent studies (in duplicate).

For `CC(=O)N[C@@H](C(=O)N[C@H](C(=O)NC(C(=O)N[C@H](CN(C)C)C(C)C)=C(C)C)C(C)C)C(C)C` [Compound 23], the IC50 in [1] (setting [19]), in [2] (setting [20]), in assay [3] (setting [21]), in assay [4] (setting [22]), in [5] (setting [23]) and in [6] (setting [24]) was above 25000 nM throughout. Further, the IC50 in assay [7] (setting [25]), in assay [8] (setting [26]), in assay [9] (setting [27]), in assay [10] (setting [28]), in [11] (setting [29]) and in assay [12] (setting [30]) was above 25000 nM throughout. The IC50 in [13] (setting [31]), in assay [14] (setting [32]), in assay [15] (setting [33]), in assay [16] (setting [34]), in [17] (setting [35]) and in [18] (setting [36]) was above 25000 nM in each case.

On to `CC[C@@]1(O)C(=O)OCc2c1cc1n(c2=O)Cc2cc3ccccc3nc2-1` [Camptothecin, reference compound], for which the concentration for half-maximal inhibition (IC50) in assay [1] (Homo sapiens, Jurkat, 72 h) is 7.3 nM; in assay [2] (Homo sapiens, COLO-678, 72 h), 126 nM; in assay [3] (Homo sapiens, MRC5, 72 h) it was 52.5 nM; in [4] (Homo sapiens, BXPC-3, 72 h), 38.4 nM; in [5] (Homo sapiens, NCI-H1048, 72 h), 9.7 nM; in [6] (Homo sapiens, HT-29, 72 h), 103 nM. Besides, the IC50 in assay [7] (Homo sapiens, U-937, 72 h) was 19.7 nM; in [8] (Homo sapiens, OVCAR-3, 72 h), 53.4 nM; in [9] (Homo sapiens, A-375, 72 h), 5.9 nM; in assay [10] (Homo sapiens, Panc1005, 72 h), 45.3 nM; in assay [11] (Homo sapiens, MV4-11, 72 h), 7.1 nM; in [12] (Homo sapiens, HCT-116, 72 h), 10.9 nM. Moreover, the IC50 in assay [13] (Homo sapiens, Ramos, 72 h) turned out to be 9.7 nM; in [14] (Homo sapiens, SNU-C1, 72 h), 47.4 nM; in assay [15] (Homo sapiens, Calu-6, 72 h), 10.2 nM; in assay [16] (Homo sapiens, A549, 72 h) it was 27.7 nM; in assay [17] (Homo sapiens, THP-1, 72 h) it was 44.9 nM; in [18] (Homo sapiens, HL-60, 72 h) it was 21 nM.

For `CC(=O)O[C@H]1C(=O)[C@@]2(C)[C@H]([C@H](OC(=O)c3ccccc3)[C@]3(O)C[C@H](OC(=O)[C@H](O)[C@@H](NC(=O)c4ccccc4)c4ccccc4)C(C)=C1C3(C)C)[C@]1(OC(C)=O)CO[C@@H]1C[C@@H]2O` [Paclitaxel, reference compound], the IC50 amounted to 5.3 nM in [1] (Homo sapiens, Jurkat, 72 h); 24 nM in [2] (Homo sapiens, COLO-678, 72 h); 8.8 nM in [3] (Homo sapiens, MRC5, 72 h); 5.5 nM in [4] (Homo sapiens, BXPC-3, 72 h); 4.7 nM in assay [5] (Homo sapiens, NCI-H1048, 72 h); 6 nM in assay [6] (Homo sapiens, HT-29, 72 h). Also, the half-maximal inhibitory concentration (IC50) was determined as 3 nM in assay [7] (Homo sapiens, U-937, 72 h); 3 nM in [8] (Homo sapiens, OVCAR-3, 72 h); 7.7 nM in assay [9] (Homo sapiens, A-375, 72 h); 7.4 nM in assay [10] (Homo sapiens, Panc1005, 72 h); 4.4 nM in assay [11] (Homo sapiens, MV4-11, 72 h); 3.4 nM in assay [12] (Homo sapiens, HCT-116, 72 h). The half-maximal inhibitory concentration (IC50) in [13] (Homo sapiens, Ramos, 72 h) is 5.9 nM; in [14] (Homo sapiens, SNU-C1, 72 h), 26.5 nM; in [15] (Homo sapiens, Calu-6, 72 h), 3.6 nM; in assay [16] (Homo sapiens, A549, 72 h) it was 4.6 nM; in assay [17] (Homo sapiens, THP-1, 72 h) it was 6.8 nM; in assay [18] (Homo sapiens, HL-60, 72 h), 9.7 nM.

Turning to `CC[C@H](C)[C@@H](NC(C)=O)C(=O)N[C@@H](C(=O)N[C@H](C(=O)NC(C(=O)N[C@H](C)C(=O)N[C@@H](C(=O)N[C@H](C(=O)NC(C(=O)N[C@H](CN(C)C)C(C)C)=C(C)C)C(C)C)C(C)C)=C(C)C)C(C)(C)O)C(C)(C)O` [Compound 24] (Ac-[d(aIle)][dVal(3-OH)][Val(3-OH)][ΔVal][dA][dV]V[ΔVal]-{NH((S)-1-NMe2-3-Me-but-2-yl)}), the IC50 in [1] (setting [19]), in [2] (setting [20]), in assay [3] (setting [21]), in assay [4] (setting [22]), in [5] (setting [23]) and in assay [6] (setting [24]) was above 25000 nM throughout. For the same compound, the half-inhibitory concentration (IC50) in assay [7] (setting [25]), in assay [8] (setting [26]), in assay [9] (setting [27]), in assay [10] (setting [28]), in assay [11] (setting [29]) and in [12] (setting [30]) was above 25000 nM in each case. In addition, the IC50 in assay [13] (setting [31]) was above 25000 nM; in assay [14] (setting [32]) it was 24900 nM; in [15] (setting [33]), above 25000 nM; in assay [16] (setting [34]), above 25000 nM; in [17] (setting [35]), above 25000 nM; in assay [18] (setting [36]), above 25000 nM.
